Test results as given in paper PMC12624743 (ACS Infectious Diseases, 2025).
In brackets after ≈: the same amount, converted by molar mass.

Experiments:
[1] = tested on: N. gonorrhoeae FA1090 (ATCC 700825); experiment: MIC by agar dilution, parental strain FA1090; assay type: cell-based; conditions: Neisseria gonorrhoeae, ATCC700825, parental strain FA1090, GyrA WT / ParC WT
Description: A series of isogenic N. gonorrhoeae strains was constructed that carried the specific target mutations GyrA^A92T or GyrA^D90N either alone or in combination with ParC^D86N or GyrA^S91F/D95G in a ciprofloxacin-susceptible strain, FA1090 (ATCC 700825).
All N. gonorrhoeae isolates were cultured and grown on GC agar plates or in fastidious broth (Remel, 07664). Minimum inhibitory concentration (MIC) of test compounds was determined by an agar dilution method, the reference testing method for N. gonorrhoeae according to the standards of the Clinical and Laboratory Standards Institute and the CDC. MIC values were determined after incubation at 37 °C for 48 h in 5% CO2.

[2] = tested on: N. gonorrhoeae FA1090E-1 (GyrA^A92T/ParC^WT); experiment: MIC by agar dilution, GyrA^A92T strain; assay type: cell-based; conditions: Neisseria gonorrhoeae
Description: The purified isolate was confirmed to harbor GyrA^A92T as the single target mutation by DNA sequencing. This strain was designated FA1090E-1 (GyrA^A92T).
Minimum inhibitory concentration (MIC) of test compounds was determined by an agar dilution method, the reference testing method for N. gonorrhoeae according to the standards of the Clinical and Laboratory Standards Institute and the CDC.

[3] = target: T1, N. gonorrhoeae gyrase GyrA^S91F (Neisseria gonorrhoeae, UniProt P48371, S91F); experiment: Gyrase-catalyzed DNA supercoiling assay, GyrA^S91F; assay type: biochemical
T1 construct: His; made in house
Description: (§1) All proteins were His-tagged. N. gonorrhoeae WT gyrase (GyrA, GyrB) and topoisomerase IV (ParC, ParE) subunits as well as mutant GyrA^D90N, GyrA^A92T, GyrA^S91F, and GyrA^S91F/D95G gyrase and ParC^D86N and ParC^S88P topoisomerase IV were prepared as described previously. , N. gonorrhoeae mutant GyrA^D95G gyrase and mutant ParC^S87N and ParC^E91G topoisomerase IV were generated using a QuickChange II XL site-directed mutagenesis kit (Agilent Technologies) with custom primers for the desired mutations. […] The identities of all constructs were confirmed by DNA sequencing, and all enzymes were stored at −80 °C. In all assays, N. gonorrhoeae gyrase or topoisomerase IV was used as a 1:1 GyrA:GyrB or ParC:ParE mixture, respectively, and the stated enzyme concentration reflects that of the holoenzyme (A2B2).
(§2) Samples were mixed with 2 μL of loading dye [60% sucrose, 10 mM Tris–HCl (pH 7.9), 0.5% bromophenol blue, and 0.5% xylene cyanol FF] and incubated at 45 °C for 2 min before being subjected to electrophoresis on 1% agarose gels in 100 mM Tris-borate (pH 8.3) and 2 mM EDTA. […] DNA bands were visualized with medium-range ultraviolet light and quantified using an Alpha Innotech digital imaging system (Protein Simple). DNA supercoiling was monitored by the conversion of relaxed to supercoiled plasmid.

[4] = target: T2, N. gonorrhoeae topoisomerase IV ParC^S88P (Neisseria gonorrhoeae, UniProt P48374, S88P); experiment: Topoisomerase IV-catalyzed DNA decatenation assay, ParC^S88P; assay type: biochemical; set-up: His; made in house
T2 sequence (P48374 1-768 S88P): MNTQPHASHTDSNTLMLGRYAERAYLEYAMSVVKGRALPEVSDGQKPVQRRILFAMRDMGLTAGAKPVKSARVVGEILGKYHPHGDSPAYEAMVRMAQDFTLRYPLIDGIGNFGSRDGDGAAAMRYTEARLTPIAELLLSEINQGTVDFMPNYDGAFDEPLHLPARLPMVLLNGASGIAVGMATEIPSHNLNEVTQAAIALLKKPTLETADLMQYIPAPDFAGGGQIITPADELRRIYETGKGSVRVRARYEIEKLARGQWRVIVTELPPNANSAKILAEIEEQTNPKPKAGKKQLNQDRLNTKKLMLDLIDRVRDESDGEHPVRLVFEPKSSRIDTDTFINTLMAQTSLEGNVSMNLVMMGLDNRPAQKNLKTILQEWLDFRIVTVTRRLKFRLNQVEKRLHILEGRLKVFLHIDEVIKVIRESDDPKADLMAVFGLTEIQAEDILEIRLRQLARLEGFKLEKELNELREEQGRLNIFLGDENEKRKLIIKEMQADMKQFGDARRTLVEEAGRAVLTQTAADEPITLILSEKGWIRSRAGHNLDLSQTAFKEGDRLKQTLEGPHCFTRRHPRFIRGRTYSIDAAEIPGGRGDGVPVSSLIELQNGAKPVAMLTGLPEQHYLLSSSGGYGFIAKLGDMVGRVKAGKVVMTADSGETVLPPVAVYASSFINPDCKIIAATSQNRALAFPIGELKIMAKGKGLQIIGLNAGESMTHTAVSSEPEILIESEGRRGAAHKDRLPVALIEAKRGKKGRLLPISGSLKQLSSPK
Description: All proteins were His-tagged. N. gonorrhoeae WT gyrase (GyrA, GyrB) and topoisomerase IV (ParC, ParE) subunits as well as mutant GyrA^D90N, GyrA^A92T, GyrA^S91F, and GyrA^S91F/D95G gyrase and ParC^D86N and ParC^S88P topoisomerase IV were prepared as described previously. , N. gonorrhoeae mutant GyrA^D95G gyrase and mutant ParC^S87N and ParC^E91G topoisomerase IV were generated using a QuickChange II XL site-directed mutagenesis kit (Agilent Technologies) with custom primers for the desired mutations. Mutant N. gonorrhoeae GyrA and ParC subunits were expressed and purified as described by Ashley et al. with the following modifications to optimize protein expression and lysis: (1) GyrA^D95G was expressed for 2.5 h and ParC^S87N and ParC^E91G were expressed for 3 h before harvesting, and (2) cells were lysed by sonication using a digital sonifier (Branson). The identities of all constructs were confirmed by DNA sequencing, and all enzymes were stored at −80 °C. In all assays, N. gonorrhoeae gyrase or topoisomerase IV was used as a 1:1 GyrA:GyrB or ParC:ParE mixture, respectively, and the stated enzyme concentration reflects that of the holoenzyme (A2B2). […]

[5] = target: T3, N. gonorrhoeae gyrase GyrA^A92T (Neisseria gonorrhoeae, UniProt P48371, A92T); experiment: Gyrase-catalyzed DNA supercoiling assay, GyrA^A92T; assay type: biochemical
T3 construct: His; made in house
Description: as §1, §2

T3 sequence (P48371 whole entry A92T): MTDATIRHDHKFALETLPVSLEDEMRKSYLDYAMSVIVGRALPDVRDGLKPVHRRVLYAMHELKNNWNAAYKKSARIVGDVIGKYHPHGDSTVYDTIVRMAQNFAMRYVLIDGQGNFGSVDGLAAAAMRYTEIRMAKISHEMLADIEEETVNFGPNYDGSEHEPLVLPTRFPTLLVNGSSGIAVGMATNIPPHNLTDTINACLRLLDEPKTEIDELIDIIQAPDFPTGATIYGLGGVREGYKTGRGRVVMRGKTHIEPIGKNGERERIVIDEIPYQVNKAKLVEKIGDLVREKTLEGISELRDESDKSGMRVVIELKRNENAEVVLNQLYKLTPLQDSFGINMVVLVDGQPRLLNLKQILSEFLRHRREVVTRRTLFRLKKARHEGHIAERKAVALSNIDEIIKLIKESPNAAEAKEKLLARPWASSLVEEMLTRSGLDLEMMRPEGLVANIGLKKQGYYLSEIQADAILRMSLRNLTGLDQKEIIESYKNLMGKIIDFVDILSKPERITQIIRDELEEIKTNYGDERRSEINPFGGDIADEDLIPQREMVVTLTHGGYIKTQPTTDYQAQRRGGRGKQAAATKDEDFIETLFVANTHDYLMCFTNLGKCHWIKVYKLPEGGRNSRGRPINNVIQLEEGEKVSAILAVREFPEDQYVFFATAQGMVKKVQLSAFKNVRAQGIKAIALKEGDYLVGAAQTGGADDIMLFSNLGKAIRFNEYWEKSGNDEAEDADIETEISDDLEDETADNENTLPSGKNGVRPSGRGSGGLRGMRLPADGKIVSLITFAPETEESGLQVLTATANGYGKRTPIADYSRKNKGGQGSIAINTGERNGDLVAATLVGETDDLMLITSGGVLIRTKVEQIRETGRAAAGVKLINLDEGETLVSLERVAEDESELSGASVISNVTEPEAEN
T3 sequence (P22118 whole entry partner): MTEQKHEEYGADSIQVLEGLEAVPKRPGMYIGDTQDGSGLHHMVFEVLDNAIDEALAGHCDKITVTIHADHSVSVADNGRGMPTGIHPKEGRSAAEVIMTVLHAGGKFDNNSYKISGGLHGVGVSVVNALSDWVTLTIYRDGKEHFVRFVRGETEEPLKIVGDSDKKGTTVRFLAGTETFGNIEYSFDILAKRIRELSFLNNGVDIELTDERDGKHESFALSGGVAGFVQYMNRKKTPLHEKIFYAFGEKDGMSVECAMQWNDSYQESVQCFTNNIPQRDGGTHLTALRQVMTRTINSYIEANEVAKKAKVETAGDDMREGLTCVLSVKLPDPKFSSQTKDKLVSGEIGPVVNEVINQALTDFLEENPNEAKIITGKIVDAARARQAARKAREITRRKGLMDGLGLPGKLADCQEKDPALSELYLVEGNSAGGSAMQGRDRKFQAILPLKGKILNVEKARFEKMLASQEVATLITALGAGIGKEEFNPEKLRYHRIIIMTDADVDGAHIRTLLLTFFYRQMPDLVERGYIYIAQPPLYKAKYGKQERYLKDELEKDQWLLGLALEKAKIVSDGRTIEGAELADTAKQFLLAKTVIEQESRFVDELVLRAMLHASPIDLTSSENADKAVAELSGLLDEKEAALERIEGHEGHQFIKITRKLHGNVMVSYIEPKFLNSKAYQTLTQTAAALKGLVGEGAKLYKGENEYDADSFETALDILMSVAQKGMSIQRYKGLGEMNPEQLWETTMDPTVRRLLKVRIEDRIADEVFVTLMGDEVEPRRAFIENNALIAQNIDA
T1 sequence (P48371 whole entry S91F): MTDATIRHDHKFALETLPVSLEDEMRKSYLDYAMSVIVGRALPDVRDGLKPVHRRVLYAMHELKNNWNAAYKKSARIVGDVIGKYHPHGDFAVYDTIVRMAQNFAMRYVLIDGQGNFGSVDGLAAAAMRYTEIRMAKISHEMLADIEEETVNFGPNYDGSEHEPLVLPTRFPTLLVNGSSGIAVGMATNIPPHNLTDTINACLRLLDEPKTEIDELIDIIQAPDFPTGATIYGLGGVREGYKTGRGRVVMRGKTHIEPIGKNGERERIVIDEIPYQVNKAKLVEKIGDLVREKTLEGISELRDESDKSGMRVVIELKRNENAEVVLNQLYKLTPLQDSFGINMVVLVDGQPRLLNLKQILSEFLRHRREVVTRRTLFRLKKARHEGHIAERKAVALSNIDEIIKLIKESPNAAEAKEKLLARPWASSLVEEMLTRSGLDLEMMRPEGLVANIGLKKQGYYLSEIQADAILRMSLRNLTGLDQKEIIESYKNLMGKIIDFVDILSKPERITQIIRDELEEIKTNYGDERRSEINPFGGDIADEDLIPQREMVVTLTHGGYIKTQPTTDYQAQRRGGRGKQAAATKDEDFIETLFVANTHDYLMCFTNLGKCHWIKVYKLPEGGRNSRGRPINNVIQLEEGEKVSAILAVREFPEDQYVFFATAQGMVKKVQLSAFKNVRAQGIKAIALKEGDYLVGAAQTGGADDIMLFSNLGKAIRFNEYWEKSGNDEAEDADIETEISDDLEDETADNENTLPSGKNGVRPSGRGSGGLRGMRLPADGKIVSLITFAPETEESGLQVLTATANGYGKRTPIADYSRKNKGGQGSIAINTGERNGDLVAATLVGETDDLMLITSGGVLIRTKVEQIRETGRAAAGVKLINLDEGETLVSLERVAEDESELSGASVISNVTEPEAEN
T1 sequence (P22118 whole entry partner): as the sequence (P22118 whole entry partner) above

## O=c1ccc2ncc(=O)n3c2n1C[C@H]3CN1CCC(NCc2cc3c(cn2)OCCC3)CC1 [gepotidacin]
[1]
  MIC: 0.125 µg/mL
[2]
  MIC: 2 µg/mL (≈ 4.46 µM)
[3]; GyrA S91F gyrase, read-out: IC50, inhibition of DNA supercoiling
  IC50: 7.5 µM
[3]; GyrA S91F vs WT
  fold increase of supercoiling IC50 vs WT gyrase: ~1.5 fold
[4]
  IC50: 1.2 µM
[4]; ParC S88P vs WT
  effect of mutation on gepotidacin susceptibility in decatenation assays: no effect
[5]; GyrA A92T gyrase, read-out: IC50, inhibition of DNA supercoiling
  IC50: 8.5 ± 2.1 µM
[5]; GyrA A92T vs WT
  fold increase of supercoiling IC50 vs WT gyrase: ~1.7 fold
